The text below walks through data of patent publication US11352331B2, “Crystal and salt of 4-(naphthalen-1-yl)-4H-1,2,4-triazole compound and preparation method therefor” (MEDSHINE DISCOVERY INC., priority 2017, dated 2022).

In general, Tmax refers to the time at which the peak concentration occurs.

One data set has as its system human liver cells. The experiment in a line: Metabolite detection after incubation in human liver cells for 120 minutes (LC-UV-MSn). In kind it is in vitro ADME. Particulars: 10 μM. The method, then: The objective of this experiment is detect the metabolites of the compounds after incubation in human liver cells for 120 minutes using LC-UV-MS^n (n=1-2). After data collection, MetaboLynx™ software was used to analyze MS and MS^2 data.
After the cells were incubated with the samples for 2 hours, protein was precipitated using acetonitrile containing formic acid and then the mixture was centrifuged. The supernatant was taken out and blow-dried with nitrogen, and then redissolved and injected for analysis.

Data set [1] is described as follows: Pharmacokinetics in cynomolgus monkeys after IV and PO administration. The format is in vivo. Particulars: PO, 10 mg/kg. As to the method:
24 healthy adult male cynomolgus monkeys were divided into 8 groups (there were IV and PO groups for each compound) with 3 animals per group.
An appropriate amount of the samples was weighted and dissolved in a certain amount of DMSO by ultrasound, followed by addition of PEG400 solution to obtain clear solutions (DMSO/PEG400/H2O (5/40/55)) of the compounds to be tested with a concentration of 2 mg/mL for IV administration.
An appropriate amount of the samples was weighted and dissolved in a certain amount of DMSO by ultrasound, followed by addition of 0.5% MC solution to obtain suspensions (DMSO/0.5% MC (5/95)) of the compounds to be tested with a concentration of 2 mg/mL for PO administration.
24 male cynomolgus monkeys were divided into 8 groups with 3 animals per group, and the drugs were administered through IV and PO after the animals had been fasting overnight. The dose for IV administration was 2 mg/kg and the dosing volume was 1 mL/kg; the dose for PO administration was 10 mg/kg and the dosing volume was 5 mL/kg.
In the IV administration groups, approximately 200 μL of blood was collected 0.083, 0.25, 0.5, 1, 2, 4, 6, 8, and 24 hours after administration; the collected blood samples were added into anticoagulation tubes containing K2-EDTA and centrifuged at 3000 rpm for 15 minutes; the plasma was isolated and stored at −80° C. In the PO administration groups, the blood was collected 0.25, 0.5, 1, 2, 4, 6, 8, and 24 hours after administration, and other operations were the same as in the IV administration group. After the plasma samples were pre-treated to precipitate the protein, the drug concentration in the plasma was determined by LC/MS/MS method. The linear range of the analysis method was 20.00-6000 nM. In PO administration group, urine was collected 0-24 hours after administration, and the drug concentration in the urine was determined by LC/MS/MS method. The linear range of the analysis method was 20.00-6000 nM.

The conditions of data set [2]: Liver microsomes, Rat; cited from earlier work.
The conditions of data set [3]: Liver microsomes, Dog; cited from earlier work.
The conditions of data set [4]: Liver microsomes, Monkey; cited from earlier work. In general terms: Liver microsomes are vesicles of endoplasmic reticulum, rich in cytochrome P450 enzymes.
For data set [5] the following is noted: Liver microsomes, Human; cited from earlier work.
Data set [6] deals with Liver cells. Conditions: Rat; cited from earlier work.
The subject of data set [7] is Liver cells. Conditions: Dog; cited from earlier work.
The subject of data set [8] is Liver cells. Conditions: Monkey; cited from earlier work.
In data set [9] the test system is Liver cells. Particulars: Human; cited from earlier work.
The conditions of data set [10]: human, 0-144 hour, after lesinurad, cited from earlier work.

Read-outs that look alike come from different tables or passages of the source.

As to `O=C(O)CSc1nnc(Br)n1-c1ccc(C2CC2)c2ccccc12` (racemic) [(±)-Lesinurad, lesinurad, reference compound], the UV area percentage in the data set on human liver cells is given as 95.60%. Also, the “Area under the curve AUG0-inf” value in [1] was found to be 69.3 µM·h. Further, the “Mean drug concentration in urine (0-24 h) Curine, 0-24 h” value in data set [1] (urine 0-24 h) turned out to be 71.622 µM. Further, in data set [1] (male, cynomolgus monkey, plasma, po, read-out: Half-life T1/2 (converted)), the half-life is 3.78 h. Further, in data set [1] (male, cynomolgus monkey, plasma, po, read-out: Peak concentration Cmax), the Cmax turned out to be 37.2 µM. Moreover, the MRT inf in data set [1] (male, cynomolgus monkey, plasma, po, read-out: Residence time MRT0-inf) came to 3.44 h. Besides, the Tmax in data set [1] (male, cynomolgus monkey, plasma, po, read-out: Time to peak Tmax) is 0.58 h. The Amount of lesinurad and metabolites (Total 100) in data set [2] was 100%; in data set [3], 100%; in data set [4] it was 92.1%; in [5] it was 100%; in the data set on Liver cells [6], 100%; in the data set with Liver cells [7], 100%. Moreover, the Amount of lesinurad and metabolites (Total 100) with Liver cells [8] was 98.1%; in the data set on Liver cells [9] it was 92.1%. Besides, the “Percentage of the administered dose” value was 1.5% in data set [10] (Faeces) and 31.3% in data set [10] (Urine).
